Here are results for 71 molecules from paper PMC6627609, “Targeting Quorum Sensing: High-Throughput Screening to Identify Novel LsrK Inhibitors” (International Journal of Molecular Sciences, 2019).

The experiment concerns the target LsrK (Salmonella typhimurium, UniProt Q8ZKQ6). Kind of experiment: biochemical. The note with it: for Inhibition (%): 50 µM. It is filed as biochemical, S. typhimurium.

LsrK, sequence (Q8ZKQ6 whole entry): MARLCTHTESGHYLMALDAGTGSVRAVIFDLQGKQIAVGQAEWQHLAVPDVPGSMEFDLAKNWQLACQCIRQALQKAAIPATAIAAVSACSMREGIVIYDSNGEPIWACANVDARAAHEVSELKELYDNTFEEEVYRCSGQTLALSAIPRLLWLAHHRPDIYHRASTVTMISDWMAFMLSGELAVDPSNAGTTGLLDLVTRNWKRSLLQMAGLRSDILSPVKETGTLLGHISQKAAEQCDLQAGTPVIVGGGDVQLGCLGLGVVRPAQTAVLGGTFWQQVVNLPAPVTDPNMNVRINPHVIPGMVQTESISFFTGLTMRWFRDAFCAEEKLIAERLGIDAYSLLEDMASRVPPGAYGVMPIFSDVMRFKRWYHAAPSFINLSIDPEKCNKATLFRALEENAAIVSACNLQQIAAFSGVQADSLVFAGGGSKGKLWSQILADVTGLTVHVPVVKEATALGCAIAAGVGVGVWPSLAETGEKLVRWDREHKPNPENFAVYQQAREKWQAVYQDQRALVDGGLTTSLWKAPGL

Consider `CC1(C)C2CC(=O)[C@]3(C)C(CC[C@@]4(C)[C@H](c5ccoc5)OC(=O)C5OC543)[C@@]2(C)[C@@H](O)C[C@H]1O` (stereo partly drawn), for which the “Inhibition (%)” value is listed as 2.

On to `CCOc1cccc(C(=O)c2ccc(O)c(O)c2O)c1`, for which the “Inhibition (%)” value is 11. Turning to `COc1ccc(C(=O)N2CCCC2=O)cc1`, the inhibition (commonly the drop in the measured response relative to a control, in per cent) at 50 µM was 0%. The same measure, in the same setting: under `COC(=O)[C@H](Cc1ccccc1)NC(=O)[C@@H](N)CC(=O)O` stands 0%; under `C=CC1=C(C(=O)O)N2C(=O)[C@@H](NC(=O)/C(=N\O)c3csc(N)n3)[C@H]2SC1`, 17%. Take `COC(=O)NC(=S)Nc1ccccc1NC(=S)NC(=O)OC`: the “Inhibition (%)” value was determined as 3. Consider `CCN(CC)C(=S)SSC(=S)N(CC)CC`, for which the inhibition at 50 µM came to 154%. On the same count and under the same terms, under `CCN(CC)C(=O)c1ccc(O)c(OC)c1` stands 0%; under `CNc1ccccc1C(=O)O`, 1%. In the case of `CCOC(=O)[C@H](CCc1ccccc1)N[C@@H](C)C(=O)N1[C@H](C(=O)O)C[C@@H]2CCC[C@@H]21`, the inhibition at 50 µM came to 3%. Turning to `CC[C@H](C=C[C@@H](C)[C@H]1CC[C@H]2[C@@H]3CCC4=CC(=O)CC[C@]4(C)[C@H]3CC[C@]12C)C(C)C`, the “Inhibition (%)” value is recorded as 1. For `CC(=O)Nc1ccc(S(=O)(=O)Nc2ccc([N+](=O)[O-])cc2)cc1`, the inhibition at 50 µM came out at 1%.

Take `CC1=C(CC(=O)O)c2cc(F)ccc2/C1=C\c1ccc([S+](C)[O-])cc1` (stereo not drawn): the inhibition at 50 µM came to 21%.

Turning to `CN1CC(=O)N2[C@H](c3ccc4c(c3)OCO4)c3[nH]c4ccccc4c3C[C@@H]2C1=O`, the inhibition at 50 µM came to 1%.

`COc1ccc2c(c1)OC[C@@H](Cc1ccc(OC)c(OC)c1)[C@H]2O`: the inhibition at 50 µM came to 2%.

Turning to `COc1ccc(/C=C/C(=O)Nc2ccccc2C(=O)O)cc1OC`, the inhibition at 50 µM came out at 15%. On the same count and under the same terms, under `Nc1nc(N)c2nc(-c3ccccc3)c(N)nc2n1` stands 0%; under `CCOC(N)=O`, 0%; under `CCCCC(=O)N(Cc1ccc(-c2ccccc2-c2nnn[nH]2)cc1)[C@H](C(=O)O)C(C)C`, 1%. Take “3-BROMO-4-METHYL-3.4-HEXAMETHYLENE-3.4-DIHYDRODIAZETE-1.2-DIOXIDE”: the “Inhibition (%)” value worked out at 1. Regarding `CC(C)CC(NC(=O)[C@H](C)N)C(=O)O` (mixture of isomers) [ALANYL-dl-LEUCINE], the inhibition at 50 µM worked out at 2%.

As to `OC[C@H]1O[C@@H](O[C@@H]2[C@@H](CO)OC(O)(CO)[C@H]2O)[C@H](O)[C@@H](O)[C@H]1O` (mixture of isomers) [LACTULOSE], the inhibition at 50 µM came out at 2%. With `C=CC[S+]([O-])C[C@H](N)C(=O)O` (mixture of isomers) [L(+/-)-ALLIIN], the “Inhibition (%)” value was 44. Consider `COc1cc(O)c(C(=O)/C=C/c2ccc(OC)c(O)c2)c(OC)c1` [2'.3-DIHYDROXY-4.4'.6'-TRIMETHOXYCHALCONE], for which the “Inhibition (%)” value turned out to be 2.

As to `COc1ccc(/C=C/C(=O)c2ccc(O)cc2O)cc1` [2'.4'-DIHYDROXY-4-METHOXYCHALCONE], the “Inhibition (%)” value was 2.

Regarding `O=C(/C=C/c1ccccc1)c1ccc(O[C@@H]2O[C@H](CO)[C@@H](O)[C@H](O)[C@H]2O)cc1O` [2'.4'-DIHYDROXYCHALCONE 4'-GLUCOSIDE], the “Inhibition (%)” value turned out to be 2.

Regarding `O=C(/C=C/c1ccccc1)c1ccc(O)cc1O` [2'.4'-DIHYDROXYCHALCONE], the “Inhibition (%)” value stood at 19.

On to `COc1cc(O)c(C(=O)/C=C/c2ccc(O)c(OC)c2)c(OC)c1` [2'.4-DIHYDROXY-3.4'.6'-TRIMETHOXYCHALCONE], for which the “Inhibition (%)” value came out at 1.

Take `O=C(/C=C/c1ccc(O)cc1)c1ccccc1O` [2'.4-DIHYDROXYCHALCONE]: the “Inhibition (%)” value was 58. As for `COc1ccc(/C=C/C(=O)c2cc(O)ccc2O)cc1` [2'.5'-DIHYDROXY-4-METHOXYCHALCONE], the “Inhibition (%)” value came to 102. For the same molecule, the IC50 – broadly, the concentration needed to halve the response being measured – (read-out: IC50 against LsrK) is greater than 50 µM.

Consider `Nc1ccccc1S(N)(=O)=O` [2-AMINOBENZENESULFONAMIDE], for which the inhibition at 50 µM is 1%. Turning to `COC1=CC(=O)C(C(=O)c2ccccc2)=CC1=O` [2-BENZOYL-5-METHOXYBENZOQUINONE], the inhibition at 50 µM stood at 38%. Consider `COc1ccc(C(=O)O)c(O)c1OC` [2-HYDROXY-3.4-DIMETHOXYBENZOIC ACID], for which the “Inhibition (%)” value is 1. As for `Sc1nc2ccccc2s1` [2-MERCAPTOBENZOTHIAZOLE], the inhibition at 50 µM is 1%.

As for `COC1(C)CCC2OC2(C)CCC2C1CC2(C)C` (stereo not drawn) [2-METHOXY-5 (6)EPOXY-TETRAHYDROCARYOPHYLLENE], the inhibition at 50 µM came out at 0%. As for `COc1c(O)cccc1O` [2-METHOXYRESORCINOL], the inhibition at 50 µM came out at 0%.

In the case of `O=C1C(Cl)=C(Cl)C(=O)c2c(O)ccc(O)c21` [2.3-DICHLORO-5.8-DIHYDROXYNAPTHOQUINONE], the “Inhibition (%)” value came to 30. As for `CCOc1ccc(C(=O)c2ccc(OC)c(O)c2O)cc1` [2.3-DIHYDROXY-4-METHOXY-4'-ETHOXYBENZOPHENONE], the “Inhibition (%)” value amounted to 16.

Consider `O=C(O)C(S)C(S)C(=O)O` (stereo not drawn) [2.3-DIMERCAPTOSUCCINIC ACID], for which the “Inhibition (%)” value turned out to be 88. Take `CCOc1ccc(C(=O)c2ccc(O)c(O)c2O)cc1` [2.3.4-TRIHYDROXY-4'-ETHOXYBENZOPHENONE]: the “Inhibition (%)” value was 79. For the molecule `O=[N+]([O-])c1ccc(O)c([N+](=O)[O-])c1` [2.4-DINITROPHENOL], the “Inhibition (%)” value worked out at 4.

As for `COc1cc(O)c(C)c(O)c1` [2.6-DIHYDROXY-4-METHOXYTOLUENE], the “Inhibition (%)” value amounted to 1. As for `COC1=CC(=O)C=C(OC)C1=O` [2.6-DIMETHOXYQUINONE], the “Inhibition (%)” value came to 50.

`CC(=O)c1cc2ccccc2oc1=O` [3-ACETYLCOUMARIN]: the inhibition at 50 µM came out at 0%. Take `Nc1nc[nH]n1` [3-AMINO-1.2.4-TRIAZOLE]: the “Inhibition (%)” value amounted to 1. `C=C1C(N)CC2CC1C2(C)C` (stereo not drawn) [3-AMINO-beta-PINENE]: the inhibition at 50 µM is 1%. For `CC(=O)O[C@H]1C[C@@H](O)C(C)(C)[C@@H]2C[C@@H](OC(C)=O)[C@]3(C)[C@H](CC[C@@]4(C)[C@@H](c5ccoc5)OC(=O)[C@H]5O[C@@]534)[C@@]12C` [3-DEACETYLKHIVORIN], the inhibition at 50 µM was found to be 99%. Consider `CC(=O)O[C@H]1CC[C@]2(C)C(C[C@@H](OC(C)=O)[C@]3(C)C4=CC(=O)O[C@H](c5ccoc5)[C@@]4(C)CCC23)C1(C)C` (stereo partly drawn) [3-DEOXO-3beta-ACETOXYDEOXYDIHYDROGEDUNIN], for which the inhibition at 50 µM amounted to 5%.

Regarding `COC(=O)C[C@H]1C(C)(C)[C@@H](O)[C@@H]2CC3=C4C=C(OC)O[C@@H](c5ccoc5)[C@]4(C)CCC3[C@@]1(C)C2=O` (stereo partly drawn) [3-DEOXO-3beta-HYDROXYMEXICANOLIDE 16-ENOL ETHER], the inhibition at 50 µM is 2%. As for `C=C1[C@H]2CC[C@@]3(C)[C@H](c4ccoc4)OC(=O)C[C@]13O[C@H]1C[C@H](O)C(C)(C)[C@H](CC(=O)OC)[C@]12C` [3-DEOXY-3beta-HYDROXY[…] METHYL ESTER], the inhibition at 50 µM stood at 1%. For `COc1ccc2c(c1)OC[C@@H](Cc1ccc(OC)c(OC)c1)[C@@H]2O` [3-DESHYDRO[…] ETHER], the inhibition at 50 µM is 3%. `COc1ccc(-c2oc3ccccc3c(=O)c2O)cc1OC` [3-HYDROXY-3'.4'-DIMETHOXYFLAVONE]: the “Inhibition (%)” value is 0. With `COc1cccc(O)c1O` [3-METHOXYCATECHOL], the inhibition at 50 µM turned out to be 118%.

Turning to `Cc1cc(O)c(C)c(O)c1C(=O)O` [3-METHYL[…]], the inhibition at 50 µM amounted to 1%. As to `C[C@@H]1CC[C@@]23CCC4(C)[C@@](C=CC5[C@@]6(C)CCC(=O)C(C)(C)C6CC[C@]54C)(OC2=O)C3[C@H]1C` (stereo partly drawn) [3-OXOURSAN (28-13)OLIDE], the inhibition at 50 µM was determined as 1%. With `c1ccc2c(Cc3c[nH]c4ccccc34)c[nH]c2c1` [3.3'-DIINDOLYLMETHANE], the “Inhibition (%)” value is 0. As to `O=c1c(O)c(-c2ccccc2)oc2cc(O)ccc12` [3.7-DIHYDROXYFLAVONE], the “Inhibition (%)” value was determined as 0. For `CC1(C)CC2C1CCC1(C)OC2(C)CCC1O` (stereo not drawn) [3.7-EPOXYCARYOPHYLLAN-6-OL], the “Inhibition (%)” value is 2.

As to `CC12CCC3C(CC3(C)C)C(C)(CCC1=O)O2` (stereo not drawn) [3.7-EPOXYCARYOPHYLLAN-6-ONE], the “Inhibition (%)” value was 1. On the same count and under the same terms, under `COC(=O)C[C@H]1C(C)(C)[C@@H](O)[C@@H]2CC3=C4CC(O)O[C@@H](c5ccoc5)[C@]4(C)CCC3[C@@]1(C)C2=O` (stereo partly drawn) [3.16-DIDEOXYMEXICANOLIDE-3beta-DIOL] stands 0; under `CC(=O)O[C@H]1CC[C@]2(C)[C@H]3CC[C@@]4(C)[C@H](c5ccoc5)OC(=O)[C@H]5O[C@]54[C@]3(C)[C@H](OC(C)=O)C[C@H]2C1(C)C` [3beta-ACETOXYDEOXODIHYDROGEDUNIN], 2. Take `C[C@@H]1CC[C@@]2(OC1)O[C@H]1C[C@H]3[C@@H]4CC[C@H]5C[C@@H](O)CC[C@]5(C)C4=CC[C@]3(C)[C@H]1[C@@H]2C` [3beta-HYDROXYISOALLOSPIROST-9(11)-ENE]: the “Inhibition (%)” value stood at 2. As to `O=C(/C=C/c1ccccc1)c1ccc(O)cc1` [4'-HYDROXYCHALCONE], the inhibition at 50 µM came out at 38%.

`COc1ccc(C(=O)/C=C/c2ccccc2)cc1` [4'-METHOXYCHALCONE]: the inhibition at 50 µM amounted to 12%.

For the molecule `CCCCOc1cc(CC2CNC(=O)N2)ccc1OC` (stereo not drawn) [4-(3-BUTOXY-4-METHOXYBENZYL)IMIDAZOLIDIN-2-ONE], the “Inhibition (%)” value is 1.

`C=CC(C1=CC(=O)C(OC)=CC1=O)c1ccccc1` (stereo not drawn) [4-METHOXYDALBERGIONE]: the inhibition at 50 µM was determined as 52%. In the case of `Cc1cc(=O)oc2c(O)c(O)ccc12` [4-METHYLDAPHNETIN], the inhibition at 50 µM stood at 1%. As to `Cc1cc(=O)oc2cc(O)c(O)cc12` [4-METHYLESCULETIN], the inhibition at 50 µM turned out to be 2%. With `COc1cc(O)c(C(C)=O)c(O)c1` [4-O-METHYLPHLORACETOPHENONE], the “Inhibition (%)” value came to 2. As to `C=CC(C1=CC(=O)C(OC)=CC1=O)c1ccc(OC)cc1` (stereo not drawn) [4.4'-DIMETHOXYDALBERGIONE], the “Inhibition (%)” value was determined as 98. As for `O=c1c(-c2ccccc2)coc2cc(O)cc(O)c12` [5.7-DIHYDROXYISOFLAVONE], the “Inhibition (%)” value is 106.
